Data on 1 compound can be found in US8633177B2, “Nitroxyl (HNO) releasing compounds and uses thereof in treating diseases” (The United States of America, as represented by the …, priority 2010, dated 2014).

The test system of one assay is A549 cells. Briefly: MTT proliferation assay, A549 cells. The assay is classed as cell-based. As to conditions: 48 h. The protocol: The effect of compounds 4 and 8 was studied on proliferation of A549 cells by 3-(4,5-Dimethylthiazol-2-yl)-2,5-diphenyltetrazolium bromide (MTT) assay. Cells were plated at a concentration of 10,000 cells per well in a 96 well plate and grown overnight. Then the cells were treated with different concentration of the compounds and controls for 48 h. After 48 h, a solution of 2 mg/ml MTT was added to each well and incubated for 1 hr. The media was then removed from each well and 100 μL DMSO was added to each well and the absorbance was recorded at 550 nm.
On the technique in general: Tetrazolium assays rely on reduction of a dye to a coloured formazan, in cell work by metabolically active cells.

Assay [1] has as its target glyceraldehyde-3-phosphate dehydrogenase (GAPDH) (Homo sapiens, UniProt P04406). The experiment in a line: GAPDH activity in A549 cells (KDalert). The arrangement: GAPDH activity in A549 cells at different time points; endogenous in cells; host or cells: A549. The assay is classed as cell-based. The protocol:
In an effort to decipher the mechanism of action of compounds 4 and 8, their effect on glyceraldehyde-3-phosphate dehydrogenase (GAPDH) activity was measured. GAPDH is a glycolytic enzyme which reversibly catalyzes the oxidation of D-glyceraldehyde-3-phosphate to 1,3-diphosphoglycerate. This method utilizes the conversion of NAD^+ to NADH by GAPDH in the presence of glyceraldehydes-3-phosphate and phosphate, which can be measured at an excitation of 560 nm and emission of 590 nm.
Cells were plated at a concentration of 30,000 cells per well and grown overnight. Then they were treated with 100 μM IPA/NO-aspirin and DEA/NO-aspirin for 1, 3, and 6 h followed by which 200 μL of KDalert lysis buffer was added to each well. The plate was incubated at 4° C. for 20 min to lyse the cells. Then 10 μL of cell lysate was transferred to a clean 96 well plate and 90 μL of KDalert mastermix was added to each well and fluorescence was measured at excitation of […]. […] It is also a critical glycolytic enzyme that can play an important role in cancer therapy as solid tumors are known to utilize glycolytic pathways even during normoxia to meet energy requirements (Gatenby et al., Nat. Rev. Cancer, 4(11):891099 (2004)). Thus, inhibition of GAPDH can diminish the […] of tumor cells.

glyceraldehyde-3-phosphate dehydrogenase (GAPDH), sequence (P04406 whole entry): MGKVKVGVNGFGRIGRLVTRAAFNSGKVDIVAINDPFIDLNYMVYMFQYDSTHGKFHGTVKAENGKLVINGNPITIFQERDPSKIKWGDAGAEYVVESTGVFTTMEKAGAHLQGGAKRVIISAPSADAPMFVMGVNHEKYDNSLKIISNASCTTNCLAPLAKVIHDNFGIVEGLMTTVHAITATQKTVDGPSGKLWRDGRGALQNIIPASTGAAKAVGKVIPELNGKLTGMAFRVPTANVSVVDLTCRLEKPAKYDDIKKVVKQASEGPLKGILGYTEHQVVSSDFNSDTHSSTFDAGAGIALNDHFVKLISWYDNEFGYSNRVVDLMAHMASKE

On to `CC(=O)Oc1ccccc1C(=O)OCON=[N+]([O-])NC(C)C` [IPA/NO-aspirin, O^2-(Acetylsalicyloyloxymethyl)-1-(N-isopropylamino)-diazen-1-ium-1,2-diolate], for which the “toxicity in MTT assay” value with A549 cells is “slightly higher toxicity than compound 8”. Also, the GAPDH Activity result in assay [1] is “inhibition of GAPDH activity at micro-molar concentrations”.
